Results reported in patent US20230406831A1, “COMPOUNDS AND METHODS OF INHIBITING BACTERIAL CHAPERONIN SYSTEMS” (THE TRUSTEES OF INDIANA UNIVERSITY, priority 2020, published 2023).

Tests used:
[1] = biological target: T1, GroEL/ES (Escherichia coli, UniProt P0A6F5); test: GroEL/ES-mediated dMDH refolding assay; type: biochemical, E. coli; details: Table 3; 37° C., 1 mM ATP; read-out: Biochemical Assay IC50 GroEL/ES-dMDH Refolding
T1 construct: made in house; host or cells: GroEL in E. coli DH5a; GroES in E. coli BL21 (DE3)
Method: (§1) Evaluation of compounds ability to inhibit GroEL/ES and HSP60/10-mediated dMDH refolding assays.
(§2) Reagent preparation: For these assays, four primary reagent stocks were prepared: 1) GroEL/ES-dMDH or HSP60/10-dMDH binary complex stock; 2) ATP initiation stock; 3) EDTA quench stock; 4) MDH enzymatic assay stock. Denatured MDH (dMDH) was prepared by 2-fold dilution of MDH (5 mg/ml, soluble pig heart MDH from Roche, product #10127248001) with denaturant buffer (7 M guanidine-HCl, 200 mM Tris, pH 7.4, and 50 mM DTT). MDH was completely denatured by incubating at room temperature for 45 min. The binary complex solutions were prepared by slowly adding the dMDH stock to a stirring stock with GroEL (or HSP60) in folding buffer (50 mM Tris-HCl, pH 7.4, 50 mM KCl, 10 mM MglC2, and 1 mM DTT), followed by addition of GroES (or HSP10). The binary complex stocks were prepared immediately prior to dispensing into the assay plates and had final protein concentrations of 83.3 nM GroEL (Mr 800 kDa) or HSP60 (Mr 400 kDa), 100 nM GroES or HSP10 (Mr 70 kDa), and 20 nM dMDH in folding buffer. For the ATP initiation stock, ATP solid was diluted into folding buffer to a final concentration of 2.5 mM. Quench solution contained 600 mM EDTA (pH 8.0). The MDH enzymatic assay stock consisted of 20 mM sodium mesoxalate and 2.4 mM NADH in reaction buffer (50 mM Tris-HCl, pH 7.4, 50 mM KC1, and 1 mM DTT).
(§3) Assay Protocol: First, 30 μL aliquots of the GroEL/ES-dMDH or HSP60/10-dMDH binary complex stocks were dispensed into clear, 384-well polystyrene plates. Next, 0.5 μL of the compound stocks (10 mM to 4.6 μM, 3-fold dilutions series in DMSO) were added by pin-transfer (V&P Scientific). The chaperonin-mediated refolding cycles were initiated by addition of 20 IA of ATP stock (reagent concentrations during refolding cycle: 50 nM GroEL or HSP60, 60 nM GroES or HSP10, 12 nM dMDH, 1 mM ATP, and compounds of 100 μM to 46 nM, 3-fold dilution series). The refolding reactions were incubated at 37° C. The incubation time was determined from refolding time-course control experiments until they reached ˜90% completion of refolding cycle — generally ˜20-40 min for GroEL/ES, and ˜40-60 min for HSP60/10). Next, the assay was quenched by addition of 10 μL of the EDTA to final concentration of 100 mM. […] A340 nm measurements were recorded at 0.5 minutes (start point) and at successive time points until the amount of NADH consumed reached ˜90% (end point, generally between 20-35 minutes). The differences between the start and end point A340 values were used to calculate the % inhibition of the GroEL/ES or HSP60/10 machinery by the compounds. IC50 values for the test compounds were obtained by plotting the % inhibition results in GraphPad Prism 6 and analyzing by non-linear regression using the log (inhibitor) vs. response (variable slope) equation. Results presented represent the averages of IC50 values obtained from at least quadriplicate (duplicate of duplicate) replicates. For results, see Tables 1, 2, and 3.

[2] = biological target: T2, HSP60/10 (Homo sapiens, UniProt P10809); test: HSP60/10-mediated dMDH refolding assay; type: biochemical; details: Table 3; 37° C., 1 mM ATP; read-out: Biochemical Assay IC50 HSP60/10-dMDH Refolding
T2 construct: octa-Histidine (His8) tag, TEV-cleavable (N, cleaved yes); made in house; host or cells: HSP60 in Rosetta 2 (DE3) E. coli; HSP10 in Rosetta 2 (DE3) pLysS
Method: as §1, §2, §3

[3] = HEK 293 kidney cell viability / cytotoxicity assay (Alamar Blue); type: cell-based; details: human, HEK 293 kidney cells; Table 3; 48 h incubation, Alamar Blue; read-out: HEK 293 Kidney Cell Viability CC50
Method: Evaluating compound effects on kidney cell viability.
HEK 293 cells were maintained in MEM medium (Corning Cellgro, 10-009 CV) supplemented with 10% FBS (Sigma, F2242). […] Cells at 80% confluence were harvested and diluted in growth medium, then 45 μL of the HEK 293 cells (1,500 cells/well) were dispensed per well, and plates were sealed with “Breathe Easy” oxygen permeable membranes (Diversified Biotech) and incubated at 37° C., 5% CO2, for 24 h. […] Plates were sealed with “Breathe Easy” oxygen permeable membranes and incubated for an additional 48 h at 37° C. and 5% CO2. The Alamar Blue reporter reagents were then added to a final concentration of 10%, the plates incubated at 37° C. and 5% CO2, and sample fluorescence (535 nm excitation, 590 nm emission) was read using a Molecular Devices FlexStation II 384-well plate reader (readings taken between 4-24 h of incubation so as to achieve signals in the 30-60% range for conversion of resazurin to resorufin). Cell viability was calculated as per vendor instructions (Thermo Fisher—Alamar Blue cell viability assay manual).

[4] = test system: S. aureus; test: S. aureus bacterial proliferation assay; type: cell-based; details: Staphylococcus aureus; Table 3; cation adjusted BHI media, OD600 at 6-8 h; read-out: S. aureus Proliferation EC50
Method: Evaluation of compounds for inhibition of bacterial cell proliferation.
Growth Media: S. aureus bacteria were grown in Brain Heart Infusion (BHI) broth/agar (Becton, Dickinson and Company). All liquid cultures were grown in BHI media supplemented with 25 mg/L Ca^2+ and 12.5 mg/L Mg^2+ to mimic free physiological concentrations of these cations. A 10 mg/mL Ca^2+ stock solution was prepared by dissolving 3.68 g of CaCl2·2H^2O in 100 mL of deionized water, and a 10 mg/mL Mg^2+ stock solution was prepared by dissolving 8.36 g of […] in 100 mL deionized water. Both stock solutions were filter-sterilized using 0.2 μm pore size cellulose-acetate filters. 2.5 mL of the sterile 10 mg/mL Ca^2+ stock and 1.25 mL of the sterile 10 mg/mL Mg^2+ stock solutions were added per 1 L of autoclaved BHI medium to obtain 25 mg/L Ca^2+ and 12.5 mg/L Mg^2+ ions, respectively.
General Assay Protocol: Stock bacterial cultures were streaked onto BHI agar plates and grown overnight at 37° C. Fresh aliquots of broth were inoculated with single bacterial colonies and the cultures were grown overnight at 37° C. with shaking (240 rpm) in cation adjusted BHI media. The following morning, the overnight cultures were sub-cultured (1:5 dilution) into fresh aliquots of cation adjusted BHI media and grown at 37° C. for 1-2 hours with shaking. After 2 h, cultures were diluted into fresh media to achieve final OD600 readings of 0.017. Aliquots of these diluted cultures (30 μL) were added to clear, flat-bottom, 384-well polystyrene plates that were stamped with 0.5 μL of test compounds in 20 μL media. Compounds were evaluated in dose-response format where the inhibitor concentration range during the proliferation assay was 100 μM to 46 nM (3-fold dilution series). Plates were sealed with “Breathe Easy” oxygen permeable membranes (Diversified Biotech) and left to incubate at 37° C. without shaking (stagnant assay). OD600 nm readings were taken generally at 6-8 h, when bacteria had reached log-phase growth. A second set of baseline control plates were prepared analogously, but without any bacteria added, to correct for possible compound absorbance and/or precipitation. Plates were then read at 600 nm using a Molecular Devices SpectraMax Plus384 microplate reader. EC50 values for the test compounds were obtained by plotting the OD600 results in GraphPad Prism and analyzing by non-linear regression using the log(inhibitor) vs. response (variable slope) equation. For results, see Tables 1, 2, and 3.

T1 sequence (P0A6F5 2-548): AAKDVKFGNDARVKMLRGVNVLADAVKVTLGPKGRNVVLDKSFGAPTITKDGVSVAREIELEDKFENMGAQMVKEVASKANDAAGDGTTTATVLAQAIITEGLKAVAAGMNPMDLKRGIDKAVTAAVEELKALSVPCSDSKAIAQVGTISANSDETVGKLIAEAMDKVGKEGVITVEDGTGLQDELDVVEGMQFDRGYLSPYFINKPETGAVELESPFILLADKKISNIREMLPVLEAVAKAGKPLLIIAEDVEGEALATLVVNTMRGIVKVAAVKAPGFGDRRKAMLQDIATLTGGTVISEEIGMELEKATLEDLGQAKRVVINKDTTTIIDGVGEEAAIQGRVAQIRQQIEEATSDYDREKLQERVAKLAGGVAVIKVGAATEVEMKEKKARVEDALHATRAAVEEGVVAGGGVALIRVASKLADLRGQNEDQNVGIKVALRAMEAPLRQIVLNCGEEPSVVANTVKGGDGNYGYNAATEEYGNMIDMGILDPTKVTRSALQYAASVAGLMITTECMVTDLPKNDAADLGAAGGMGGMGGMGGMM
T2 sequence (P10809 27-573): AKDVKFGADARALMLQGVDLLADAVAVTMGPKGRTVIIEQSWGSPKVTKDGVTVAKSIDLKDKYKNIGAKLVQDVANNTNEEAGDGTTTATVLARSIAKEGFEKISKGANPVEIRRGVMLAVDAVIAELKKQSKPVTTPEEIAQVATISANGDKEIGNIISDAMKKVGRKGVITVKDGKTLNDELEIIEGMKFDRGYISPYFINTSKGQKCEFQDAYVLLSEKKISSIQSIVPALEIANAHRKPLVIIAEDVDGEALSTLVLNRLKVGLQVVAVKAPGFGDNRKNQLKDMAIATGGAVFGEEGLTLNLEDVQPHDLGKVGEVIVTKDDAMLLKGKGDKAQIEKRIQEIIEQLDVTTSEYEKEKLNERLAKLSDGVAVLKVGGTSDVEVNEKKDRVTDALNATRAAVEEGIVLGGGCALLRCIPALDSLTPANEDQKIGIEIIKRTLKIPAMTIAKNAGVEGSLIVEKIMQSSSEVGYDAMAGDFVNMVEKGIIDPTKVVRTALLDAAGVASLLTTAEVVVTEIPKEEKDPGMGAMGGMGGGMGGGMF

O=C(O)c1ccc(NC(=O)c2cc(Cl)ccc2O)cc1 [Compound 109, 4-(5-chloro-2-hydroxybenzamido)benzoic acid]
> 100 µM: IC50 [1] | IC50 [2] | CC50 at 48 h [3] | EC50 [4]
